IC50 and inhibition data for 13 molecules are collected here from patent US20240100170A1, “CYCLIC-AMP RESPONSE ELEMENT BINDING PROTEIN (CBP) AND/OR ADENOVIRAL E1A BINDING PROTEIN OF 300 KDA (P300) DEGRADATION COMPOUNDS AND METHODS OF USE” (CULLGEN (SHANGHAI), INC., priority 2020, published 2024).

Chain of P300 (Q09472 whole entry): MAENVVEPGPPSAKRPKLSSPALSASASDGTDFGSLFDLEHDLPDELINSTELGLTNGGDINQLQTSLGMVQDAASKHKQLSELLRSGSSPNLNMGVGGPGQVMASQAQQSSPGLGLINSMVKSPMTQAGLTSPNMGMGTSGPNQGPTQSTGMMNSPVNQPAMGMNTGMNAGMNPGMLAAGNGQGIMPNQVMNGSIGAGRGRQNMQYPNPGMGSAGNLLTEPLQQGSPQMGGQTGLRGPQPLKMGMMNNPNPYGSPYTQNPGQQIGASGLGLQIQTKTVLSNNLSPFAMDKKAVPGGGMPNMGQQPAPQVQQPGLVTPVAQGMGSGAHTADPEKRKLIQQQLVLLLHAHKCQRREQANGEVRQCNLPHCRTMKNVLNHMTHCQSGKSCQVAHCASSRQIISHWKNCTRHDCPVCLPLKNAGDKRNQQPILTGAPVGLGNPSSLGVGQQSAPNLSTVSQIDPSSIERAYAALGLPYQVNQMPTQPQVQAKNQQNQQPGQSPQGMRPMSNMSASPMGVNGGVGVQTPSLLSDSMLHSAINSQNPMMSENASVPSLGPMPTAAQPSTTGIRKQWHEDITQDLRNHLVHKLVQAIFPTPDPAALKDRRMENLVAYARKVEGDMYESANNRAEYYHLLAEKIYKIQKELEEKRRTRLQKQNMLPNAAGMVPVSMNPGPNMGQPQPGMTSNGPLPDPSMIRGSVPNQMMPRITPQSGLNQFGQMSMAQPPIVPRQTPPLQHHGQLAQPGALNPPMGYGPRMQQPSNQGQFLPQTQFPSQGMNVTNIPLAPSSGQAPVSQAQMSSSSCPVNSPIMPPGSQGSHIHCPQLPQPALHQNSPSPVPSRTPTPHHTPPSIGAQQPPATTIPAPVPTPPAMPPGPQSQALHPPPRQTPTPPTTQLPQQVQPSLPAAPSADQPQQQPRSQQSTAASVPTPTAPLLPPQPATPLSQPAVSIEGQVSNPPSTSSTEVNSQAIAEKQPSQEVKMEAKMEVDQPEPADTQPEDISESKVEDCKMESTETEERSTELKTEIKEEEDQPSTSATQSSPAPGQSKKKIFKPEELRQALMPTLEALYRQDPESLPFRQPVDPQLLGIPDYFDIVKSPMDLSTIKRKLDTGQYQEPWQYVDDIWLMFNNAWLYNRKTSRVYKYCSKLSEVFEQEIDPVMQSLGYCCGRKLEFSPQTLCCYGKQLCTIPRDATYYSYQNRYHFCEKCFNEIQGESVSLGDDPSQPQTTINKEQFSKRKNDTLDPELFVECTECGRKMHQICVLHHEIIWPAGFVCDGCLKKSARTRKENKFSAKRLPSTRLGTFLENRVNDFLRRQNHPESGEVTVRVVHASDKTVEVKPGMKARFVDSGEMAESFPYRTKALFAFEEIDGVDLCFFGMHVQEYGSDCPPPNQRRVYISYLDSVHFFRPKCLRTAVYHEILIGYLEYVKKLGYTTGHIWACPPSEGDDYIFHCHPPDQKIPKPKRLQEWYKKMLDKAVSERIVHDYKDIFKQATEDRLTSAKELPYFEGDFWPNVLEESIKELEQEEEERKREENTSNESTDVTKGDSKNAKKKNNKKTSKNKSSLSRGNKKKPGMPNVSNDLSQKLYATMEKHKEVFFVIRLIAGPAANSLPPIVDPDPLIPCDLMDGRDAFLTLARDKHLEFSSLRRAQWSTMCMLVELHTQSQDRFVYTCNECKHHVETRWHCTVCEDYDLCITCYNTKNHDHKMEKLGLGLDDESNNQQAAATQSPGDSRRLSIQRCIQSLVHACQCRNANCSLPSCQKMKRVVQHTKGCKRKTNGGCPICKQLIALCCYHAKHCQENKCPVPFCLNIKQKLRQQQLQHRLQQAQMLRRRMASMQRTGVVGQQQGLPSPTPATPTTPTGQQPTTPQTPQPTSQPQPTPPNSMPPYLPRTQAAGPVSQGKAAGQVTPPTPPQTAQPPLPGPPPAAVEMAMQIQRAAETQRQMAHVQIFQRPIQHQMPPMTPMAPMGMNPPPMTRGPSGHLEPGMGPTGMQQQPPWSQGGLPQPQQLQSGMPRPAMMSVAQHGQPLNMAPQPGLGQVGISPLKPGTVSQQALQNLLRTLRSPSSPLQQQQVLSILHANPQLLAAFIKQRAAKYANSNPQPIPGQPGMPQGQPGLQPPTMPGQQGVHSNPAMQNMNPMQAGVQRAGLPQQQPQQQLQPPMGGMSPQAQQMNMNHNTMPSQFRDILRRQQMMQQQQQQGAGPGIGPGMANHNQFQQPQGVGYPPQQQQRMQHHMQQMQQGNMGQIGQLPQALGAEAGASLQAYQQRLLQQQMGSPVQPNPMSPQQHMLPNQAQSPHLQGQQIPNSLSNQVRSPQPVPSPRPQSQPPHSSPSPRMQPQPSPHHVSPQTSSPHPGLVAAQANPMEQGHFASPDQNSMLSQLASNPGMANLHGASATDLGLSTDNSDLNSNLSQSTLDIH

The first assay deals with LNCaP prostate cancer cell. The assay can be described thus: LNCaP cell viability (CellTiter-Glo). In kind it is cell-based. To be noted: Homo sapiens, 72 h; LNCaP cell viability, 3 days, CellTiter-Glo; Table 3. On the procedure:
LNCaP cells seeded in 96-well plates were treated with 10 μM GNE-781 or selected bivalent compounds, i.e. P-001, P-002, and P-019, following a 12-point 3-fold serial dilution. Three days after treatment, cell viability was determined using the CellTiter-Glo kit (Promega) following manufacturer's instructions. Cell viability was normalized to the mean values of 3 replicates of untreated cells. Dose-dependent response was analyzed following the least-squares non-linear regression method using the GraphPad Prism 5.0 software.
LNCaP (clone FGC), 22RV1 and other cells were cultured at 37° C. with 5% CO 2 in RPMI 1640 Medium supplemented with 10% fetal bovine serum. Cells were authenticated using the short tandem repeat (STR) assays. Mycoplasma test results were negative.
Cells were seeded at a density of 5000 cells per well in 96-well assay plates and treated with test compounds following a 12-point 3-fold serial dilution. Three days later, cell viability was determined using the CellTiter-Glo assay kit according to the manufactureR's instructions. The dose-response curves were determined and IC50 values were calculated using the GraphPad Prism software following a nonlinear regression (least squares fit) method.
`CNC(=O)N1CCc2c(c(N3CCCc4cc(-c5cnn(C)c5)c(C(F)F)cc43)nn2C2CCN(C(=O)CCOCCC(=O)N[C@H](C(=O)N3C[C@H](O)C[C@H]3C(=O)NCc3ccc(-c4scnc4C)cc3)C(C)(C)C)CC2)C1` [P-065, 3-(7-(difluoromethyl)-6-(1-methyl-1H-pyrazol-4-yl)-3,4-dihydroquinolin-1(2H)-yl)-1-(1-(3-(3-(((S)-1-((2S,4R)-4-hydroxy-2-((4-(4-methylthiazol-5-yl)benzyl)carbamoyl)pyrrolidin-1-yl)-3,3-dimethyl-1-oxobutan-2-yl)amino)-3-oxopropoxy)propanoyl)piperidin-4-yl)-N-methyl-1,4,6,7-tetrahydro-5H-pyrazolo[4,3-c]pyridine-5-carboxamide] yielded an IC50 of 74.5 nM.

Staying with this assay, now noted: Homo sapiens, 72 h; LNCaP cell viability, 3 days, CellTiter-Glo; Table 4.
On to `CC(=O)N1CCc2c(c(N3CCCc4cc(-c5cnn(C)c5)c(C(F)F)cc43)nn2C2CCN(C(=O)CN3CCN(CC#Cc4cccc5c4n(C)c(=O)n5C4CCC(=O)NC4=O)CC3)CC2)C1` (centres unmarked) [P-226, 3-(4-(3-(4-(2-(4-(5-Acetyl-3-(7-(difluoromethyl)-6-(1-methyl-1H-pyrazol-4-yl)-3,4-dihydroquinolin-1(2H)-yl)-4,5,6,7-tetrahydro-1H-pyrazolo[4,3-c]pyridin-1-yl)piperidin-1-yl)-2-oxoethyl)piperazin-1-yl)prop-1-yn-1-yl)-3-methyl-2-oxo-2,3-dihydro-1H-benzo[d]imidazol-1-yl)piperidine-2,6-dione], for which inhibition was half-maximal at 398 nM (IC50). The molecule `CC(=O)N1CCc2c(c(N3CCCc4cc(-c5cnn(C)c5)c(C(F)F)cc43)nn2C2CCN(CCCCN3CCC(Cn4c(=O)n(C5CCC(=O)NC5=O)c5ccccc54)CC3)CC2)C1` (centres unmarked) [P-236, 3-(3-((1-(4-(4-(5-acetyl-3-(7-(difluoromethyl)-6-(1-methyl-1H-pyrazol-4-yl)-3,4-dihydroquinolin-1(2H)-yl)-4,5,6,7-tetrahydro-1H-pyrazolo[4,3-c]pyridin-1-yl)piperidin-1-yl)butyl)piperidin-4-yl)methyl)-2-oxo-2,3-dihydro-1H-benzo[d]imidazol-1-yl) piperidine-2,6-dione] yielded an IC50 of 560 nM. In turn, `CC(=O)N1CCc2c(c(N3CCCc4cc(-c5cnn(C)c5)c(C(F)F)cc43)nn2C2CCN(CCCCN3CCN(c4cccc5c4C(=O)N(C4CCC(=O)NC4=O)C5=O)CC3)CC2)C1` (centres unmarked) [P-248, 4-(4-(4-(4-(5-Acetyl-3-(7-(difluoromethyl)-6-(1-methyl-1H-pyrazol-4-yl)-3,4-dihydroquinolin-1(2H)-yl)-4,5,6,7-tetrahydro-1H-pyrazolo[4,3-c]pyridin-1-yl)piperidin-1-yl)butyl)piperazin-1-yl)-2-(2,6-dioxopiperidin-3-yl)isoindoline-1,3-dione] registered an IC50 of 241 nM.

In the case of `CC(=O)N1CCc2c(c(N3CCCc4cc(-c5cnn(C)c5)c(C(F)F)cc43)nn2C2CCN(CCN3CCC(COc4cccc5c4n(C)c(=O)n5C4CCC(=O)NC4=O)CC3)CC2)C1` (centres unmarked) [P-255, 3-(4-((1-(2-(4-(5-Acetyl-3-(7-(difluoromethyl)-6-(1-methyl-1H-pyrazol-4-yl)-3,4-dihydroquinolin-1(2H)-yl)-4,5,6,7-tetrahydro-1H-pyrazolo[4,3-c]pyridin-1-yl)piperidin-1-yl)ethyl)piperidin-4-yl)methoxy)-3-methyl-2-oxo-2,3-dihydro-1H-benzo[d]imidazol-1-yl)piperidine-2,6-dione], the IC50 was greater than 500 nM.

`CC(=O)N1CCc2c(c(N3CCCc4cc(-c5cnn(C)c5)c(C(F)F)cc43)nn2C2CCN(C(=O)CN3CCN(CC(=O)Nc4cccc(NC5CCC(=O)NC5=O)c4)CC3)CC2)C1` (centres unmarked) [P-257, 2-(4-(2-(4-(5-acetyl-3-(7-(difluoromethyl)-6-(1-methyl-1H-pyrazol-4-yl)-3,4-dihydroquinolin-1(2H)-yl)-4,5,6,7-tetrahydro-1H-pyrazolo[4,3-c]pyridin-1-yl)piperidin-1-yl)-2-oxoethyl)piperazin-1-yl)-N-(3-((2,6-dioxopiperidin-3-yl)amino)phenyl)acetamide] registered an IC50 greater than 500 nM.

`CC(=O)N1CCc2c(c(N3CCCc4cc(-c5cnn(C)c5)c(C(F)F)cc43)nn2C2CCN(C(=O)CCN3CCN(CC(=O)Nc4cccc(NC5CCC(=O)NC5=O)c4)CC3)CC2)C1` (centres unmarked) [P-258, 2-(4-(3-(4-(5-acetyl-3-(7-(difluoromethyl)-6-(1-methyl-1H-pyrazol-4-yl)-3,4-dihydroquinolin-1(2H)-yl)-4,5,6,7-tetrahydro-1H-pyrazolo[4,3-c]pyridin-1-yl)piperidin-1-yl)-3-oxopropyl)piperazin-1-yl)-N-(3-((2,6-dioxopiperidin-3-yl)amino)phenyl)acetamide] showed an IC50 greater than 500 nM. The molecule `CC(=O)N1CCc2c(c(N3CCCc4cc(-c5cnn(C)c5)c(C(F)F)cc43)nn2C2CCN(C(=O)CCCN3CCN(CC(=O)Nc4cccc(NC5CCC(=O)NC5=O)c4)CC3)CC2)C1` (centres unmarked) [P-259, 2-(4-(4-(4-(5-acetyl-3-(7-(difluoromethyl)-6-(1-methyl-1H-pyrazol-4-yl)-3,4-dihydroquinolin-1(2H)-yl)-4,5,6,7-tetrahydro-1H-pyrazolo[4,3-c]pyridin-1-yl)piperidin-1-yl)-4-oxobutyl)piperazin-1-yl)-N-(3-((2,6-dioxopiperidin-3-yl)amino)phenyl)acetamide] displayed an IC50 greater than 500 nM. On the same count and under the same terms, with `CC(=O)N1CCc2c(c(N3CCCc4cc(-c5cnn(C)c5)c(C(F)F)cc43)nn2C2CCN(C(=O)CC3CCN(CC(=O)Nc4cccc(NC5CCC(=O)NC5=O)c4)CC3)CC2)C1` (centres unmarked) [P-260, 2-(4-(2-(4-(5-acetyl-3-(7-(difluoromethyl)-6-(1-methyl-1H-pyrazol-4-yl)-3,4-dihydroquinolin-1(2H)-yl)-4,5,6,7-tetrahydro-1H-pyrazolo[4,3-c]pyridin-1-yl)piperidin-1-yl)-2-oxoethyl)piperidin-1-yl)-N-(3-((2,6-dioxopiperidin-3-yl)amino)phenyl)acetamide] the figure was greater than 500 nM. On the same count and under the same terms, under `CC(=O)N1CCc2c(c(N3CCCc4cc(-c5cnn(C)c5)c(C(F)F)cc43)nn2C2CCN(C(=O)CCC3CCN(CC(=O)Nc4cccc(NC5CCC(=O)NC5=O)c4)CC3)CC2)C1` (centres unmarked) [P-261, 2-(4-(3-(4-(5-acetyl-3-(7-(difluoromethyl)-6-(1-methyl-1H-pyrazol-4-yl)-3,4-dihydroquinolin-1(2H)-yl)-4,5,6,7-tetrahydro-1H-pyrazolo[4,3-c]pyridin-1-yl)piperidin-1-yl)-3-oxopropyl)piperidin-1-yl)-N-(3-((2,6-dioxopiperidin-3-yl)amino)phenyl)acetamide] stands greater than 500 nM; under `CC(=O)N1CCc2c(c(N3CCCc4cc(-c5cnn(C)c5)c(C(F)F)cc43)nn2C2CCN(C(=O)CCCC3CCN(CC(=O)Nc4cccc(NC5CCC(=O)NC5=O)c4)CC3)CC2)C1` (centres unmarked) [P-262, 2-(4-(4-(4-(5-Acetyl-3-(7-(difluoromethyl)-6-(1-methyl-1H-pyrazol-4-yl)-3,4-dihydroquinolin-1(2H)-yl)-4,5,6,7-tetrahydro-1H-pyrazolo[4,3-c]pyridin-1-yl)piperidin-1-yl)-4-oxobutyl)piperidin-1-yl)-N-(3-((2,6-dioxopiperidin-3-yl)amino)phenyl)acetamide], greater than 500 nM.

`CC(=O)N1CCc2c(c(N3CCCc4cc(-c5cnn(C)c5)c(C(F)F)cc43)nn2C2CCN(C(=O)CCCCCCCC(=O)Nc3cccc(NC4CCC(=O)NC4=O)c3)CC2)C1` (centres unmarked) [P-263, 9-(4-(5-Acetyl-3-(7-(difluoromethyl)-6-(1-methyl-1H-pyrazol-4-yl)-3,4-dihydroquinolin-1(2H)-yl)-4,5,6,7-tetrahydro-1H-pyrazolo[4,3-c]pyridin-1-yl)piperidin-1-yl)-N-(3-((2,6-dioxopiperidin-3-yl)amino)phenyl)-9-oxononanamide] displayed an IC50 greater than 500 nM.

The next assay concerns the target P300 (Homo sapiens, UniProt Q09472). Description: percentage of inhibition (degradation) of p300 at 10 nM, Tables 2-4. The class given is cell-based. On the set-up: LNCaP or 22RV1 cells that express CBP/P300 proteins were treated with GNE-781 or the bivalent compounds; endogenous in cells; host or cells: LNCaP or 22RV1 (not given). To be noted: p300, 10 nM; Table 2; read-out: Degradation (10 nM). On the procedure:
Cultured cells or tissue chunks were washed with cold PBS once and lysed in cold RIPA buffer supplemented with protease inhibitors and phosphatase inhibitors (Beyotime Biotechnology). The solutions were then incubated at 4° C. for 30 minutes with gentle agitation to fully lyse cells. Cell lysates were centrifuged at 13,000 rpm for 10 minutes at 4° C. and pellets were discarded. Total protein concentrations in the lysates were determined by BCA assays (Beyotime Biotechnology). Cell lysates were mixed with Laemmli loading buffer to 1 X and heated at 99° C. for 5 min. Proteins were resolved on SDS-PAGE and visualized by chemiluminescence. Images were taken by a ChemiDoc MP Imaging system (Bio-Rad). Protein bands were quantitated using the accompanied software provided by Bio-Rad.
On to `CNC(=O)N1CCc2c(c(N3CCCc4cc(-c5cnn(C)c5)c(C(F)F)cc43)nn2C2CCN(C(=O)CNc3cccc4c3C(=O)N(C3CCC(=O)NC3=O)C4=O)CC2)C1` (centres unmarked) [P-013, 3-(7-(difluoromethyl)-6-(1-methyl-1H-pyrazol-4-yl)-3,4-dihydroquinolin-1(2H)-yl)-1-(1-((2-(2,6-dioxopiperidin-3-yl)-1,3-dioxoisoindolin-4-yl)glycyl)piperidin-4-yl)-N-methyl-1,4,6,7-tetrahydro-5H-pyrazolo[4,3-c]pyridine-5-carboxamide], for which the inhibition at 0.01 µM lay in the range of 20 to 50%.

Staying with this assay, now noted: p300, 10 nM; Table 3; read-out: Degradation (10 nM).
Consider `CNC(=O)N1CCc2c(c(N3CCCc4cc(-c5cnn(C)c5)c(C(F)F)cc43)nn2C2CCN(C(=O)CCOCCC(=O)N[C@H](C(=O)N3C[C@H](O)C[C@H]3C(=O)NCc3ccc(-c4scnc4C)cc3)C(C)(C)C)CC2)C1` [P-065, 3-(7-(difluoromethyl)-6-(1-methyl-1H-pyrazol-4-yl)-3,4-dihydroquinolin-1(2H)-yl)-1-(1-(3-(3-(((S)-1-((2S,4R)-4-hydroxy-2-((4-(4-methylthiazol-5-yl)benzyl)carbamoyl)pyrrolidin-1-yl)-3,3-dimethyl-1-oxobutan-2-yl)amino)-3-oxopropoxy)propanoyl)piperidin-4-yl)-N-methyl-1,4,6,7-tetrahydro-5H-pyrazolo[4,3-c]pyridine-5-carboxamide], for which the inhibition at 0.01 µM is less than 20%.
